In US10259781B2, “Imaging agents” (THE REGENTS OF THE UNIVERSITY OF MICHIGAN, priority 2012, dated 2019):
Entries after “also recorded” stand apart in the source; their conditions may differ.

Assays:
[1] = In vitro incubation with monkey liver cytosol fraction and PAPS (sulfur conjugation); format: in vitro ADME
Description: The main radiometabolite formed is more polar than the parent compound, [^18F]4-MHPG. The metabolite has been identified as the sulfur conjugate of [^18F]4-MHPG based on in vitro incubations of the parent compound with a monkey liver cytosol fraction and the required cofactor 3′-phospho-adenosine-5′phosphosulfate (PAPS). After only 1 minute of in vitro incubation, approximately 70% of [^18F]4-MHPG was sulfur conjugated, and after 20 minutes of incubation, 100% was in the sulfur-conjugated form (FIG. 4B). Sulfur conjugation occurs at the meta-hydroxyl group (FIG. 4C). Without being bound by theory and without requiring an understanding of the mechanism to practice the technology, it is contemplated that rapid metabolism of [^18F]4F-MHPG is a reason for its low liver uptake. In comparison, the structurally similar carbon-11 compound, [^11C]guanyl-meta-octopamine (GMO), has a slower metabolic breakdown in monkey plasma, with a T1/2 for breakdown of approximately 13 minutes.

Biodistribution in rats = format: in vivo, rat; conditions: for Biodistribution, Ovary / Biodistribution, Testes / Biodistribution, Uterus: n = 2
Description: During the development of embodiments of the technology, data were collected from bioevaluation studies of [^18F]4F-MHPG. […]
(§1) During the development of embodiments of the technology provided herein, the biodistribution of [^18F]4F-MHPG into the organs of rats was assessed. In particular, four time points (Table 3) were collected and used to derive human radiation absorbed dose estimates using the OLINDA/EXM 1.0 software package (see, e.g., Stabin et al. (2005) “OLINDA/EXM; the second-generation personal computer software for internal dose assessment in nuclear medicine”, J Nucl Med. 46: 1023-7). […] These values were entered into the Dynamic Bladder model of OLINDA/EXM, assuming a 4.0-hour void interval. Organs with the highest absorbed dose estimates included the urinary bladder wall (0.666 rad/mCi), […] (0.221 rad/mCi), small intestine (0.201 rad/mCi), and the heart wall (0.201 rad/mCi). An ‘effective dose’ of 0.091 rem/mCi was estimated for [^18F]4F-MHPG. Under United States Federal Regulations governing research with a new radiopharmaceutical (21 CFR § 361.1), the maximum allowable radiation absorbed dose to an individual organ (other than the gonads) is 5 rad. Considering the maximum estimated absorbed dose (urinary bladder wall; 0.666 rad/mCi), initial PET studies in human subjects could use a maximum of 7.5 mCi of [^18F]4F-MHPG. This would correspond to an ‘effective dose’ of 0.68 rem.

[2] = tested on: cardiac sympathetic neurons; assay: Isolated working rat heart model: neuronal uptake and clearance kinetics
Description: The radiotracer was infused into the heart for 10 minutes to measure the tracer uptake rate into cardiac sympathetic neurons (Kup, shown in units of ml/min/g tissue wet). Then, the heart was infused with normal heart perfusate to measure the tracer clearance rate from the heart over 2 hours.
Experiments were conducted to test ^11C-phenoxyethylguanidine (PEG), e.g., to establish baseline values for the NET transport rate (Kup, expressed in units of mL perfusate/min/g wet) and the clearance rate from sympathetic neurons (T1/2, expressed in units of hours).

[3] = MicroPET imaging studies in rats: excretion through the bladder; format: in vivo, rat
Description: as §1

[4] = molecular target: T1, norepinephrine transporters (NET) (Macaca mulatta, UniProt Q9MYW8); assay: Desipramine (DMI) block of the neuronal uptake of [18F]4F-MHPG, microPET; format: in vivo, rhesus macaque monkey
T1 construct: from tissue; host or cells: heart (presynaptic sympathetic nerve terminals) of living rhesus macaque monkeys, microPET in vivo
T1 sequence (Q9MYW8 1-617): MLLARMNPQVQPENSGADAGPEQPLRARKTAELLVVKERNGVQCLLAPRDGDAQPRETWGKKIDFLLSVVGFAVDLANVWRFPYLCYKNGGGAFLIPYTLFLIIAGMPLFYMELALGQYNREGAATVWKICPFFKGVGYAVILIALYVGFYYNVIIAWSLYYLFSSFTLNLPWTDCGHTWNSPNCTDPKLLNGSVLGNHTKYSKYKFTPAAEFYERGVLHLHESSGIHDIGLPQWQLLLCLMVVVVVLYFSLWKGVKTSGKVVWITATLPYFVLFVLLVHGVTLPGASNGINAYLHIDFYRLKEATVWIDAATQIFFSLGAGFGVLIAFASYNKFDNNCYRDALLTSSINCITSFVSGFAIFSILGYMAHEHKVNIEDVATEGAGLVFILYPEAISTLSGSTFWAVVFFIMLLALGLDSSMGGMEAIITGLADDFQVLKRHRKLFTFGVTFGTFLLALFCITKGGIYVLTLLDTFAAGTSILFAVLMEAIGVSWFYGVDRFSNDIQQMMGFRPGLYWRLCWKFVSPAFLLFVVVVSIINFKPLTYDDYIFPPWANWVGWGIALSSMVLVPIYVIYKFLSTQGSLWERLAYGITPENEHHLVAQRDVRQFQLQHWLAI
Excerpt: Additional data were collected and Patlak analyses performed.
Orthogonal slice images were acquired for comparison with data from a control study.

[5] = 30 minutes after injection, n=5

fraction sulfur conjugated ([1]; after 1 minute of in vitro incubation): approximately 70% | fraction in the sulfur-conjugated form ([1]; after 20 minutes of incubation): 100% | maximum percentage of the injected dose observed in the gastrointestinal tract (Biodistribution in rats): 12.6% | Biodistribution, Adrenal (Biodistribution in rats; 5 min): 0.203 ± 0.083 % ID · kg/g | Biodistribution, Blood (Biodistribution in rats; 5 min): 0.062 ± 0.004 % ID/g | Biodistribution, Bone (Biodistribution in rats; 5 min): 0.060 ± 0.015 % ID/g | Biodistribution, Brain (Biodistribution in rats; 5 min): 0.004 ± 0.001 % ID · kg/g | Biodistribution, Eyeballs (Biodistribution in rats; 5 min): 0.039 ± 0.006 % ID · kg/g | Biodistribution, Heart (Biodistribution in rats; 5 min): 0.746 ± 0.067 % ID · kg/g | Biodistribution, Kidney (Biodistribution in rats; 5 min): 1.398 ± 0.530 % ID · kg/g | Biodistribution, Liver (Biodistribution in rats; 5 min): 0.477 ± 0.110 % ID · kg/g | Biodistribution, Lung (Biodistribution in rats; 5 min): 0.267 ± 0.045 % ID · kg/g | Biodistribution, Muscle (Biodistribution in rats; 5 min): 0.019 ± 0.005 % ID/g | Biodistribution, Pancreas (Biodistribution in rats; 5 min): 0.137 ± 0.024 % ID · kg/g | Biodistribution, Spleen (Biodistribution in rats; 5 min): 0.268 ± 0.044 % ID · kg/g | Biodistribution, Stomach (Biodistribution in rats; 5 min): 0.116 ± 0.021 % ID · kg/g | Biodistribution, Ovary (Biodistribution in rats; 5 min): 0.194 ± 0.048 % ID · kg/g | Biodistribution, Testes (Biodistribution in rats; 5 min): 0.018 ± 0.002 % ID · kg/g | Biodistribution, Uterus (Biodistribution in rats; 5 min): 0.268 ± 0.044 % ID · kg/g | Biodistribution, Adrenal (Biodistribution in rats; 30 min): 0.181 ± 0.069 % ID · kg/g | Biodistribution, Blood (Biodistribution in rats; 30 min): 0.022 ± 0.003 % ID/g | Biodistribution, Bone (Biodistribution in rats; 30 min): 0.039 ± 0.015 % ID/g | Biodistribution, Brain (Biodistribution in rats; 30 min): 0.003 ± 0.000 % ID · kg/g | Biodistribution, Eyeballs (Biodistribution in rats; 30 min): 0.040 ± 0.004 % ID · kg/g | Biodistribution, Heart (Biodistribution in rats; 30 min): 0.602 ± 0.111 % ID · kg/g | Biodistribution, Kidney (Biodistribution in rats; 30 min): 0.183 ± 0.055 % ID · kg/g | Biodistribution, Liver (Biodistribution in rats; 30 min): 0.406 ± 0.071 % ID · kg/g | Biodistribution, Lung (Biodistribution in rats; 30 min): 0.136 ± 0.032 % ID · kg/g | Biodistribution, Muscle (Biodistribution in rats; 30 min): 0.025 ± 0.011 % ID/g | Biodistribution, Pancreas (Biodistribution in rats; 30 min): 0.145 ± 0.021 % ID · kg/g | Biodistribution, Spleen (Biodistribution in rats; 30 min): 0.262 ± 0.055 % ID · kg/g | Biodistribution, Stomach (Biodistribution in rats; 30 min): 0.110 ± 0.004 % ID · kg/g | Biodistribution, Ovary (Biodistribution in rats; 30 min): 0.171 ± 0.020 % ID · kg/g | Biodistribution, Testes (Biodistribution in rats; 30 min): 0.010 ± 0.001 % ID · kg/g | Biodistribution, Uterus (Biodistribution in rats; 30 min): 0.155 ± 0.001 % ID · kg/g | Biodistribution, Adrenal (Biodistribution in rats; 60 min): 0.193 ± 0.053 % ID · kg/g | Biodistribution, Blood (Biodistribution in rats; 60 min): 0.016 ± 0.002 % ID/g | Biodistribution, Bone (Biodistribution in rats; 60 min): 0.027 ± 0.009 % ID/g | Biodistribution, Brain (Biodistribution in rats; 60 min): 0.002 ± 0.000 % ID · kg/g | Biodistribution, Eyeballs (Biodistribution in rats; 60 min): 0.041 ± 0.006 % ID · kg/g | Biodistribution, Heart (Biodistribution in rats; 60 min): 0.526 ± 0.116 % ID · kg/g | Biodistribution, Kidney (Biodistribution in rats; 60 min): 0.186 ± 0.090 % ID · kg/g | Biodistribution, Liver (Biodistribution in rats; 60 min): 0.350 ± 0.077 % ID · kg/g | Biodistribution, Lung (Biodistribution in rats; 60 min): 0.091 ± 0.015 % ID · kg/g | Biodistribution, Muscle (Biodistribution in rats; 60 min): 0.016 ± 0.002 % ID/g | Biodistribution, Pancreas (Biodistribution in rats; 60 min): 0.172 ± 0.042 % ID · kg/g | Biodistribution, Spleen (Biodistribution in rats; 60 min): 0.253 ± 0.054 % ID · kg/g | Biodistribution, Stomach (Biodistribution in rats; 60 min): 0.115 ± 0.029 % ID · kg/g | Biodistribution, Ovary (Biodistribution in rats; 60 min): 0.142 ± 0.052 % ID · kg/g | Biodistribution, Testes (Biodistribution in rats; 60 min): 0.008 ± 0.003 % ID · kg/g | Biodistribution, Uterus (Biodistribution in rats; 60 min): 0.112 ± 0.046 % ID · kg/g | Biodistribution, Adrenal (Biodistribution in rats; 120 min): 0.133 ± 0.021 % ID · kg/g | Biodistribution, Blood (Biodistribution in rats; 120 min): 0.009 ± 0.001 % ID/g | Biodistribution, Bone (Biodistribution in rats; 120 min): 0.016 ± 0.005 % ID/g | Biodistribution, Brain (Biodistribution in rats; 120 min): 0.001 ± 0.001 % ID · kg/g | Biodistribution, Eyeballs (Biodistribution in rats; 120 min): 0.026 ± 0.006 % ID · kg/g | Biodistribution, Heart (Biodistribution in rats; 120 min): 0.347 ± 0.055 % ID · kg/g | Biodistribution, Kidney (Biodistribution in rats; 120 min): 0.078 ± 0.024 % ID · kg/g | Biodistribution, Liver (Biodistribution in rats; 120 min): 0.233 ± 0.049 % ID · kg/g | Biodistribution, Lung (Biodistribution in rats; 120 min): 0.036 ± 0.006 % ID · kg/g | Biodistribution, Muscle (Biodistribution in rats; 120 min): 0.015 ± 0.002 % ID/g | Biodistribution, Pancreas (Biodistribution in rats; 120 min): 0.121 ± 0.016 % ID · kg/g | Biodistribution, Spleen (Biodistribution in rats; 120 min): 0.235 ± 0.066 % ID · kg/g | Biodistribution, Stomach (Biodistribution in rats; 120 min): 0.089 ± 0.019 % ID · kg/g | Biodistribution, Ovary (Biodistribution in rats; 120 min): 0.129 ± 0.029 % ID · kg/g | Biodistribution, Testes (Biodistribution in rats; 120 min): 0.004 ± 0.001 % ID · kg/g | Biodistribution, Uterus (Biodistribution in rats; 120 min): 0.081 ± 0.006 % ID · kg/g | biological half-time of excretion through the bladder [3]: 0.20±0.02 hours | injected dose excreted through the bladder [3]: 19.9±0.2% | specificity of myocardial uptake for cardiac sympathetic neurons ([4]; control vs DMI block): 100% | nonspecific binding in heart tissue ([4]; highest dose DMI block study): very low; also recorded: extremely low
SMILES: N=C(N)NCCc1ccc(F)c(O)c1 [[^18F]4F-MHPG] [4-[^18F]fluoro-meta-hydroxy-phenethylguanidine]
tissue concentration, adrenal medulla (Biodistribution in rats; [5]): 0.54 ± 0.08 percentage of the injected dose per gram | tissue concentration, blood (Biodistribution in rats; [5]): 0.07 ± 0.01 percentage of the injected dose per gram | tissue concentration, left ventricle (Biodistribution in rats; [5]): 1.45 ± 0.13 percentage of the injected dose per gram | tissue concentration, liver (Biodistribution in rats; [5]): 1.14 ± 0.16 percentage of the injected dose per gram | tissue concentration, lung (Biodistribution in rats; [5]): 0.43 ± 0.08 percentage of the injected dose per gram | tissue concentration, muscle (Biodistribution in rats; [5]): 0.07 ± 0.01 percentage of the injected dose per gram | tissue concentration, spleen (Biodistribution in rats; [5]): 0.56 ± 0.10 percentage of the injected dose per gram | kinetics compared with [11C]4F-MHPG [2]: almost identical
